# Laboratory results reported in patent US7696184B2, “Amino-propanol derivatives as sphingosine-1-phosphate receptor modulator” (Novartis AG, priority 2003, dated 2010).
# Experiments:
# [1] = tested on: peripheral blood lymphocytes; assay: In vivo: Blood Lymphocyte Depletion; conditions: rats, p.o.
# Protocol: B. In vivo: Blood Lymphocyte Depletion
# A compound of formula I or the vehicle is administered orally by gavage to rats. Tail blood for hematological monitoring is obtained on day -1 to give the baseline individual values, and at 2, 6, 24, 48 and 72 hours after application. In this assay, the compounds of formula I deplete peripheral blood lymphocytes when administered at a dose of 0.03 to 3 mg/kg. For example, following results are obtained: depletion of peripheral blood lymphocytes by more than 50%
# [2] = target: T1, human S1P receptor EDG-6 (S1P4) (Homo sapiens, UniProt O95977); assay: S1P receptor profiling, GTP[γ-35S] binding SPA, S1P4; type: biochemical; conditions: for EC50: GTP[γ-35S] binding, membranes of transfected CHO or RH7777 cells; for S1P4 mode of action: column beside S1P4 EC50
# T1 construct: expressed in transfected cells
# T1 sequence (O95977 1-384): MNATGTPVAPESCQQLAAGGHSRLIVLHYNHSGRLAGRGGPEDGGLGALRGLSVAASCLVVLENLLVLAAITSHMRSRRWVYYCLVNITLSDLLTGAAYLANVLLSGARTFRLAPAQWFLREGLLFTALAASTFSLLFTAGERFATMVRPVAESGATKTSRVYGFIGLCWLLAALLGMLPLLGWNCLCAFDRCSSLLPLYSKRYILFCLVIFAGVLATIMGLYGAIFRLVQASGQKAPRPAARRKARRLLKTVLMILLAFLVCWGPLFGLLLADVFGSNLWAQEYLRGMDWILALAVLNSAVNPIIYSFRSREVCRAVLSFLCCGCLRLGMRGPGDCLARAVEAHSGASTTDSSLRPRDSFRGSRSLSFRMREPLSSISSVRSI
# Protocol: (§1) Sphingosine-1-phosphate (S1P) Receptor Profiling
# (§2) Agonist activities of compounds are tested on the human SIP receptors EDG-1 (S1P1), EDG-3 (S1P3), EDG-5 (S1P2), EDG-6 (S1P4) and EDG-8 (S1P5). […] The assay technology used is SPA (scintillation proximity based assay). Briefly, DMSO dissolved compounds are serially diluted and added to SPA-bead (Amersham-Pharmacia) immobilised S1P receptor expressing membrane protein (10-20 μg/well) in the presence of 50 mM Hepes, 100 mM NaCl, 10 mM MgCl2, 10 μM GDP, 0.1% fat free BSA and 0.2 nM GTP [γ-^35S] (1200 Ci/mmol). After incubation in 96 well microtiterplates at RT for 120 min, unbound GTP [γ-^35S] is separated by a centrifugation step. Luminescence of SPA beads triggered by membrane bound GTP [γ-^35S] is quantified with a TOPcount plate reader (Packard). EC50s are calculated using standard curve fitting software.
# [3] = target: T2, human S1P receptor EDG-8 (S1P5) (Homo sapiens, UniProt Q9H228); assay: S1P receptor profiling, GTP[γ-35S] binding SPA, S1P5; type: biochemical; conditions: for EC50: GTP[γ-35S] binding, membranes of transfected CHO or RH7777 cells; for S1P5 mode of action: column beside S1P5 EC50
# T2 construct: expressed in transfected cells
# T2 sequence (Q9H228 whole entry): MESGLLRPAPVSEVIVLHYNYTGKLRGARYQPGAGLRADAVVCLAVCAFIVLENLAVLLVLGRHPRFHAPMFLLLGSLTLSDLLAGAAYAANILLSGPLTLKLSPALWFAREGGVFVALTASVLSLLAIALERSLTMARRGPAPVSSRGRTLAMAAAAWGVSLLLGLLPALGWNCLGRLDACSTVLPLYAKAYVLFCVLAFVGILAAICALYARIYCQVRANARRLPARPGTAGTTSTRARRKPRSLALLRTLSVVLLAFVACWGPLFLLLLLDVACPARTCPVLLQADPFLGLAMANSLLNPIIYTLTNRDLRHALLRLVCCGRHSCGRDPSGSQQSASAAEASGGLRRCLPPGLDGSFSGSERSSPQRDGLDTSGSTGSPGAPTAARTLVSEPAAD
# Protocol: as §1, §2
# [4] = target: T3, human S1P receptor EDG-5 (S1P2) (Homo sapiens, UniProt O95136); assay: S1P receptor profiling, GTP[γ-35S] binding SPA, S1P2; type: biochemical; conditions: membranes of transfected CHO or RH7777 cells
# T3 construct: expressed in transfected cells
# T3 sequence (O95136 whole entry): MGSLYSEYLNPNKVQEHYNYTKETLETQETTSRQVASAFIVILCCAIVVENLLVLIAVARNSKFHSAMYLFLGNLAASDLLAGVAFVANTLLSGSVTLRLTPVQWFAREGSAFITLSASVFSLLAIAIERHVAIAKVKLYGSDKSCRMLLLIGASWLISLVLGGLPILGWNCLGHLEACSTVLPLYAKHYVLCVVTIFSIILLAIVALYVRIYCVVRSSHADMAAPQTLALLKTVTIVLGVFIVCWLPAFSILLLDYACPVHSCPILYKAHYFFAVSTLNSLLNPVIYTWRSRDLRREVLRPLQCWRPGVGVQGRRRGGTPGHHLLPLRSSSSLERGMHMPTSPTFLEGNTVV
# Protocol: as §1, §2
# [5] = target: T4, human S1P receptor EDG-3 (S1P3) (Homo sapiens, UniProt Q99500); assay: S1P receptor profiling, GTP[γ-35S] binding SPA, S1P3; type: biochemical; conditions: membranes of transfected CHO or RH7777 cells
# T4 construct: expressed in transfected cells
# T4 sequence (Q99500 whole entry): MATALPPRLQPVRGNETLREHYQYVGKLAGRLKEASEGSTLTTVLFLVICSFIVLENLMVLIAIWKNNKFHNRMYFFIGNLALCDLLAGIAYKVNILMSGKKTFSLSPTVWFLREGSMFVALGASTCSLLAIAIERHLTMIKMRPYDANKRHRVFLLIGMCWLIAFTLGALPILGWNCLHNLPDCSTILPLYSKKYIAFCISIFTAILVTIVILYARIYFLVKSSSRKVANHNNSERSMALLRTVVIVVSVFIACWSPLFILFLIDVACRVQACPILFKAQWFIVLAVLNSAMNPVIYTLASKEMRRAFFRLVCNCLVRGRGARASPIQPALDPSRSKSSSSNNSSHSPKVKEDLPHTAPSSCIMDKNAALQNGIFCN
# Protocol: as §1, §2
# [6] = target: T5, human S1P receptor EDG-1 (S1P1) (Homo sapiens, UniProt P21453); assay: S1P receptor profiling, GTP[γ-35S] binding SPA, S1P1; type: biochemical; conditions: for EC50: GTP[γ-35S] binding, membranes of transfected CHO or RH7777 cells
# T5 construct: expressed in transfected cells
# T5 sequence (P21453 whole entry): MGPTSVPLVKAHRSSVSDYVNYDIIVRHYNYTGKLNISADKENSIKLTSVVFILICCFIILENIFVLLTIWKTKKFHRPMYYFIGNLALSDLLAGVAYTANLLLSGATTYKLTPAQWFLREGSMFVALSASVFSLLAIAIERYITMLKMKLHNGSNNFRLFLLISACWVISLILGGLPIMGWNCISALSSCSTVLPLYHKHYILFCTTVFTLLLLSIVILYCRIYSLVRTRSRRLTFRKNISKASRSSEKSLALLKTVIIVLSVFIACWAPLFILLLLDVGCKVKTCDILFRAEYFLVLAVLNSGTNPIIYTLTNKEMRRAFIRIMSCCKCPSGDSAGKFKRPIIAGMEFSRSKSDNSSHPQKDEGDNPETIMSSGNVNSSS
# Protocol: as §1, §2
SMILES,EC50 [2] [nM],EC50 [3] [nM],EC50 [4] [nM],EC50 [5] [nM],EC50 [6] [nM],S1P4 mode of action [2],S1P5 mode of action [3],S1P1 mode of action [6],dose giving depletion of peripheral blood lymphocytes by more than 50% ([1]; after 6 h) [mg/kg],dose giving depletion of peripheral blood lymphocytes by more than 50% ([1]; after 48 h) [mg/kg]
"CCOc1ccc(CCOc2c(Cl)cc(CC[C@@](C)(N)CO)cc2OC)cc1 [Example 9, (R-2-Amino-4-{3-chloro-4-[2-(4-ethoxy-phenyl)-ethoxy]-5-methoxy-phenyl}-2-methyl-butan-1-ol Hydrotriflate]",,,,,,,,,0.2,
"CCCCCOc1c(Cl)cc(CC[C@@](C)(N)CO)cc1Cl [Example 1, (R)-2-Amino-4-(3,5-dichloro-4-pentyloxy-phenyl)-2-methyl-butan-1-ol Hydrotriflate]",,,,,,,,,0.5,> 1
"CCOc1ccc(CCOc2c(Cl)cc(CC[C@@](C)(N)COP(=O)(O)O)cc2OC)cc1 [Example 10, Phosphoric acid mono-((R)-2-amino-4-{3-chloro-4-[2-(4-ethoxy-phenyl)-ethoxy]-5-methoxy-phenyl}-2-methyl-butyl)ester]",> 10000,2.5,> 10000,111,0.3,,,,,
"COc1cc(CC[C@@](C)(N)CO)cc(Cl)c1OCCCC(F)(F)C(F)(F)F.Cl [Example 5, (R)-2-Amino-4-[3-chloro-5-methoxy-4-(4,4,5,5,5-pentafluoro-pentyloxy)-phenyl]-2-methyl-butan-1-ol Hydrochloride]",,,,,,,,,0.2,> 1

# Continued, in another order:
EC50 [2] [nM],EC50 [3] [nM],EC50 [4] [nM],EC50 [5] [nM],EC50 [6] [nM],S1P4 mode of action [2],S1P5 mode of action [3],S1P1 mode of action [6],SMILES,dose giving depletion of peripheral blood lymphocytes by more than 50% ([1]; after 6 h) [mg/kg],dose giving depletion of peripheral blood lymphocytes by more than 50% ([1]; after 48 h) [mg/kg]
0.2,0.2,> 10000,> 10000,0.2,Agon.,Agon.,Agon.,"CCCCCOc1c(Cl)cc(CC[C@@](C)(N)COP(=O)(O)O)cc1Cl [Example 4, Phosphoric acid mono-[(R)-2-amino-4-(3,5-dichloro-4-pentyloxy-phenyl)-2-methyl-butyl]ester]",,
0.8,0.2,> 10000,> 10000,1.3,Agon.,Agon.,Agon.,"COc1cc(CC[C@@](C)(N)COP(=O)(O)O)cc(Cl)c1OCCCC(F)(F)C(F)(F)F [Example 6, Phosphoric acid mono-{(R)-2-amino-4-[3-chloro-5-methoxy-4-(4,4,5,5,5-pentafluoro-pentyloxy)-phenyl]-2-methyl-butyl}ester]",,
